From publication PMC4535769, “The Carboxy Terminus of the Ligand Peptide Determines the Stability of the MHC Class I Molecule H-2K^b: A Combined Molecular Dynamics and Experimental Study” (PLoS ONE, 2015)
Read-outs that look alike come from different tables or passages of the source. Ends that are not written are not given here.

Tests used:
[1] = target: T1, cell surface K^b, RMA-S cells (Mus musculus, UniProt P01901); experiment: Brefeldin A (BFA) decay assay, cell surface K^b on RMA-S cells; assay type: cell-based, murine; conditions: 10 μM peptide, 10 μg/ml BFA, 37°C, after four hours, MAb Y3, flow cytometry, n = 3
T1 construct: endogenous in cells; host or cells: RMA-S cells (TAP-deficient)
T1 sequence (P01901 22-369): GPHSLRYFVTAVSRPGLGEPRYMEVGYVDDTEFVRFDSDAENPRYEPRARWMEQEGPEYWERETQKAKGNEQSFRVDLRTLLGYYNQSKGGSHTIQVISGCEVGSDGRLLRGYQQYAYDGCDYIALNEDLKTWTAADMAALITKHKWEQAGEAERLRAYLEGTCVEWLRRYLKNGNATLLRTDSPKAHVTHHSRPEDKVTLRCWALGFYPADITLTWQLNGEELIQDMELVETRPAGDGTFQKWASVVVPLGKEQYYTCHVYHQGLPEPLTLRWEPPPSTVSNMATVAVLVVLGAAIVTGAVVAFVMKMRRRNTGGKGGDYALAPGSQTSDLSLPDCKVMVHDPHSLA
T1 sequence (P01887 21-119 partner): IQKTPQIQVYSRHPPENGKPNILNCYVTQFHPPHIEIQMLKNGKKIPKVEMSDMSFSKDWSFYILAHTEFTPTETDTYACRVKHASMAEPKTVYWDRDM
Protocol: RMA-S cells were kept overnight at 25°C and at t = 0 treated with 10 μg/ml BFA (Applichem or Alfa Aesar) and with 10 μM peptide and transferred to 37°C for a maximum of 4 hours. At different time points, cells were washed twice with 1x PBS/0.01% NaN3, and cell surface K^b was measured with the MAb Y3 by flow cytometry.
We then incubated these cells with each peptide and measured the surface residence time of the K^b/peptide complexes by withdrawing aliquots of cells at different times, fixing, and staining with the antibody Y3 followed by flow cytometry (Fig 7, S1I Fig).
RMA-S cells were incubated overnight at 25°C, then 10 μM peptide (as indicated) was added to the medium, and cells were transferred to 37°C. H-2K^b surface levels were determined at each time point with MAb Y3 and flow cytometry. Averages ± SEM (n = 3) are normalized to initial mean fluorescence intensity (MFI).

[2] = target: T2, K^b/β2m (Mus musculus, UniProt P01901); experiment: Competitive binding against SIINFEKTAMRAL measured by fluorescence anisotropy (IC50); parameters: species or system murine
T2 construct: The TDTF analysis was performed on the luminal domain of K^b, which was produced in E.coli; made in house
T2 sequence (P61769 21-119 partner, one chain of several): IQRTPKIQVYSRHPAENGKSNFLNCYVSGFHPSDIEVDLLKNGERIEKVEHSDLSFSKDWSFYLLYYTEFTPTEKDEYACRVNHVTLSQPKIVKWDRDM
Protocol: Steady state measurements were performed with peptide-free folding reactions of K^b/β2m.
K^b was folded empty and then incubated with different concentrations of each peptide variant for five minutes. Then, the index peptide SIINFEKTAMRAL (fluorescently labeled on the lysine side chain) was added as a competitor, and the endpoint of its binding was measured by fluorescence anisotropy. From theory curves fitted to the data, we calculated the half-maximal concentration of inhibition of SIINFEKTAMRAL binding (IC50) for each modified peptide (Fig 6, S1F Fig).
Fig 6 Half-maximal concentration of peptide (IC50) required to inhibit the binding of the high affinity peptide SIINFEKTAMRAL. K^b/β2m complexes derived from the […] (B) structures were folded empty and then incubated for 5 minutes with different concentrations of full-length, truncated, or modified peptides. […] Binding curves (left) are of one representative experiment, and the IC50 values (right) are the average of three experiments.

[3] = target: T2, K^b/β2m; experiment: Thermal denaturation by tryptophan fluorescence (TDTF) of K^b/β2m/peptide complexes; assay type: binding, murine; conditions: for ∆GTDTF: derived from TDTF measurements by the two-state, single-transition model
Protocol: TDTF measurements and Tm determination were performed exactly as described previously [36].
To test our ranking by experiment, we next used the TDTF (thermal denaturation measured by tryptophan fluorescence) assay to determine the Tm of the K^b/peptide complexes. In this assay, thermal unfolding of the class I molecule is measured by the decrease in fluorescence intensity that occurs when the tryptophan indoles are exposed to the aqueous environment [49, 50]. The TDTF analysis was performed on the luminal domain of K^b, which was produced in E.coli and folded from inclusion bodies as a complex with human β2m and with or without peptide [36]. […] From the Tm values, we derived the ΔΔGTDTF values using the two-state model of denaturation [50, 51].
The folded heavy chain/β2m/peptide complex was prepared by diluting 200 ‏‏µg of the K^b heavy chain, 200 ‏‏µg of human β2m (both produced in E. coli), and none or 10 µM of peptide into 2 ml of the refolding buffer (100 mM Tris-Cl pH 8, 0.5 M arginine, 2 mM EDTA, 0.5 mM oxidized glutathione, 5 mM reduced glutathione), and the reaction was incubated at 4 °C for 48 hours, then ultracentrifuged at 10^5 ×g for 20 min to sediment aggregates. Concentration of soluble protein was then determined using the Bradford assay.
The folded complex was measured in PBS (150 mM NaCl, 10 mM phosphate pH 7.4) in a 1 cm × 1 cm cuvette in a Cary Eclipse fluorimeter (Agilent, Waldbronn, Germany) equipped with a Peltier heater and an in-cuvette thermocouple. The sample was heated at 0.30 K/min, and fluorescence values (λex= 290 nm, λem= 345 nm) were recorded every 0.1 K.
The differentials (F(T+∆T) – F(T))/∆T (with F = fluorescence intensity and ∆T = the temperature interval of recording) were smoothed over 40 points. The minimum of the resulting curve allows a simple optical assessment of the Tm. For display, LOWESS fits [17] to the differentials were performed with GraphPad Prism (GraphPad, La Jolla, CA, USA).
The binding free energy components were derived from the TDTF measurements according to the two-state, single-transition model [18,19]. […]

[4] = K^b/β2m folded empty, incubated 5 min with peptide, then 100 nM SIINFEKTAMRAL, fluorescence anisotropy endpoint, average of three experiments, read-out: IC50, inhibition of SIINFEKTAMRAL binding

CC(C)C[C@H](NC(=O)[C@H](C)NC(=O)[C@@H]1CCCN1C(=O)[C@H](Cc1ccc(O)cc1)NC(=O)[C@H](CC(N)=O)NC(=O)CNC(=O)[C@@H]1CCCN1C(=O)[C@H](C)NC(=O)[C@@H](N)Cc1ccccc1)C(=O)O [FAPGNYPAL]
K^b/peptide complexes remaining on the cell surface [1]: more than 80%

CC[C@H](C)[C@H](NC(=O)[C@@H](NC(=O)[C@@H](N)CO)[C@@H](C)CC)C(=O)N[C@@H](CC(N)=O)C(=O)N[C@@H](Cc1ccccc1)C(=O)N[C@@H](CCC(=O)O)C(=O)N[C@@H](CCCCN)C(=O)N[C@@H](CC(C)C)C(=O)O [reference compound]
IC50 [2, 4]: 190 nM | K^b/peptide complexes remaining on the cell surface [1]: more than 80%

APGNYPAL [APGNYPAL]
IC50 [2]: 150 nM

FAPGNYPA
IC50 [2]: 18000 nM

SIINFEKA
IC50 [2, 4]: 120 nM

SIINFEKG
∆GTDTF [3]: -92.6 ± 9.2 kcal/mol

SIINFEKL-Cdel
∆GTDTF [3]: -83.8 ± 8.3 kcal/mol | ∆∆GTDTF ([3]; derived from Tm by the two-state model, relative to the full-length peptide): 20.7 kcal/mol
